Like-named read-outs stand apart in the source and are kept apart here.
Legend:
[1] = biological target: T1, Alg44 (Pseudomonas aeruginosa, UniProt Q9HY69); experiment: intact protein LC-MS adduct; type: binding
[2] = biological target: T1, Alg44; experiment: intact protein LC-MS adduct; type: binding; remark: listed apart in the source

T1 sequence (Q9HY69 14-122): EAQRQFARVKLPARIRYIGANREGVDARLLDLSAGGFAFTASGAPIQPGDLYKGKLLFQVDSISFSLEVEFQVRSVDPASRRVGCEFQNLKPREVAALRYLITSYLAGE

| Molecule | IC50 [1] [µM] | IC50 [2] [µM] |
| --- | --- | --- |
| CCC1(C)Cc2ccccc2-c2nc3[nH][nH]c(=S)n3c(=O)c21 (centres unmarked) [compound 925] | 58.1 ± 1.2 |  |
| AC1LFHI9 |  | 63.5 ± 1.3 |

— PMC6295334 (ACS chemical biology, 2017)
